Measured values reported in patent US20170095505A1, “COMBINATION OF XENON AND AN ANTIOXIDANT TO CONTROL A PARKINSON'S DISEASE-TYPE NEURODEGENERATIVE DISEASE” (L'Air Liquide, Société Anonyme pour I'Etude et …, priority 2014, published 2017).

System: TH-positive (dopaminergic) neurons of mesencephalon cultures
Assay: Survival of TH-positive dopaminergic neurons in rat mesencephalon primary cultures, degeneration by chronic treatment with PDC, under controlled gaseous atmosphere
Type: cell-based
Parameters: key to Survival of TH-positive neurons: a favorable response, synonymous with a decrease in the level of neuronal cell death in the presence of the treatments of interest, is denoted by a “+”, “++”, or “+++” sign (+++ = level of reference); a favorable response, synonymous with a decrease in the level of neuronal cell death in the presence of the treatments of interest, is denoted by a “+”, “++”, or “+++” sign; a favorable response, synonymous with a decrease in the level of neuronal cell death in the presence of the treatments of interest, is denoted by a “+”, “++”, or “+++” sign; an unfavorable response is represented by a “−” sign, synonymous with an increase in the neuronal death
Details: for Survival of TH-positive neurons: D13-D16, analyzed D16; for survival rate of dopaminergic neuronal cells: % of cultures not treated with PDC under 75% nitrogen
Description: Cultures are prepared from mesencephalon of rat embryos, taken from gestating female Wistar rats on day 15.5 of gestation. The method for obtaining the mesencephalon cultures comprises obtaining a homogeneous cell suspension via mechanical dissociation, i.e. non-enzymatic dissociation, of the embryonic tissue, using Leibovitz L15 medium (Sigma Aldrich). Aliquots of this suspension are added to Nunc 48-well plates, which were precoated with a thin layer of polyethyleneimine (1 mg/ml, borate buffer, pH 8.3) so as to enable the adhesion of the neuronal cells (cf. Toulorge et al., Faseb J, 2011). The seeding density is between approximately 80 000 and 100 000 cells/cm^2. The mesencephalon cultures are maintained in neurobasal culture medium, containing a B27 cocktail without antioxidant, N2 supplement, glutamine (2 mM) and a penicillin/streptomycin cocktail ([…] al., J Neurochem, 2008). The medium and supplements thereof are available from Life Technologies. Up to the time when the effects of the gases of interest are evaluated, the cultures are placed in a conventional enclosure thermostatically controlled at 37° C., in which the CO2 is maintained at 5% by volume and wherein the atmosphere is saturated with water. No change of culture medium is carried out throughout the culture period. Pharmacological Treatments of the Cultures p The degenerative process is triggered by applying a glutamate reuptake system blocker, L-trans-pyrrolidine-2,4-dicarboxylic acid or PDC (Zuiderwijk et al., Europ J Pharmacol, 1994). The antioxidant, namely Trolox, is added to the cultures before the application of PDC. Once the pharmacological treatments have been carried out, the multiwell plates containing the cells in culture and the plate used to humidify the internal compartment of the chamber are placed on a metal base which receives the Plexiglas incubation chamber. The two parts (base and Plexiglas chamber) are butt-joined together by screwing. A gas mixture of interest comprising (% by volume): 20% of O2, 5% of CO2 and 75% of the gas tested is then injected into the incubation chamber, with open inlet and outlet valves, while at the same time controlling the output flow rate by means of a flow meter. The gases tested are nitrogen and xenon. The reference output flow rate, set for air at 10 liters/min, is corrected according to the density of the mixture used. When the CO2 measurement reaches 5% at the outlet, the injection of the gas mixture is stopped and the chamber is made totally airtight by closing the inlet and outlet valves. The exposure chamber is then placed in an enclosure at 37° C. throughout the experimental protocol. After breaking the […] by opening the inlet and outlet valves and unscrewing the chamber from its base, the cultures are fixed with 4% formaldehyde in PBS for 12 min and then incubated at 4° C. with an anti-TH monoclonal antibody (dilution 1/5000) for 2 days. […] The image acquisition is carried out with an infrared imager of Odyssey type (Li-COR Biosciences) and the quantification of the neurons is carried out by means of the ICY software (Institut Pasteur). The results recorded on the figure appended hereto illustrate the synergistic protective effects of xenon and of Trolox in a cell model mimicking chronic Parkinsonian degeneration. […] The cultures are then recovered for fixing and analysis. The neuronal survival is quantified under the various experimental conditions tested, by counting the number of cell bodies immunopositive for the dopaminergic marker TH. The results are expressed in % (±SEM) of the mean values of the cultures not treated with PDC, maintained under 75% of nitrogen (control condition).

In the case of `O=C(O)[C@H]1CN[C@H](C(=O)O)C1` (relative stereo) [PDC, L-trans-pyrrolidine-2,4-dicarboxylic acid], the “Survival of TH-positive neurons” value (PDC 100 μM, 20% O2 + 5% CO2 + 75% N2) is reported as “−” and the “survival rate of dopaminergic neuronal cells” value (PDC 100 μM, atmosphere containing 75 vol % nitrogen) is reported as 25.4%.
`Cc1c(C)c2c(c(C)c1O)CCC(C)(C(=O)O)O2` (stereo not drawn) [Trolox, 6-hydroxy-2,5,7,8-tetramethylchromane-2-carboxylic acid] was tested, and the “Survival of TH-positive neurons” value (PDC 100 μM + Trolox 0.1 μM, 75% N2) was “−”, the “Survival of TH-positive neurons” value (PDC 100 μM + Trolox 0.3 μM, 75% N2) was “−” and the “Survival of TH-positive neurons” value (PDC 100 μM + Trolox 1 μM, 75% N2) was “+”. For the same compound, the “Survival of TH-positive neurons” value (PDC 100 μM + Trolox 10 μM, 75% N2) was “++”, the “Trolox concentration from which a significant protective effect is produced” value (PDC 100 μM, 75% nitrogen, p<0.05 vs cultures exposed only to PDC in the same atmosphere) was ≥ 1 µM and the “effect of Trolox applied alone on neuronal survival” value (PDC 100 μM, Trolox 0.1-0.3 μM, atmosphere containing 75% nitrogen) was “no significant effect”.
In the case of `[Xe]` [Xe, xenon], the “Survival of TH-positive neurons” value (PDC 100 μM, 20% O2 + 5% CO2 + 75% Xe) is reported as “++”, the “survival of dopaminergic neurons treated with PDC, 75% xenon compared with 75% nitrogen” value (PDC 100 μM, Trolox present or absent, p<0.05 vs corresponding cultures under 75% nitrogen) is reported as “increase in the survival” and the “survival rate of dopaminergic neuronal cells” value (PDC 100 μM, nitrogen replaced with xenon (75%)) is reported as 57.7%. The “Survival of TH-positive neurons” value (no PDC (Control group II), 20% O2 + 5% CO2 + 75% Xe) was “+++”.
